We go through one compound from US6359005B1, “Method for the treatment of mania and bipolar disorder” (Warner-Lambert Company, priority 1998, dated 2002).

A short description of one data set: Metabolism in the body. The note with it: in vivo.
A short description of data set [1]: Toxicity / tolerability of the compound. To be noted: in vivo.
Data set [2] deals with healthy subjects and patients suffering from anxiety. The data set can be described thus: Studies of healthy subjects and patients suffering from anxiety. It is filed as in vivo, human. From the text:
This is a novel use for pregabalin which would not be obvious to a medical practitioner of ordinary skill.
This effect will be beneficial in acute mania and will also lead to reducing the risk for onset of a new episode of mania in a predisposed individual. Thus, the prophylactic use of pregabalin for bipolar disorder is also taught.

On to `CC(C)C[C@H](CN)CC(=O)O` [Pregabalin, (S)-3-(aminomethyl)-5-methylhexanoic acid], for which the “Metabolism in the body” value in “Metabolism in the body” is “not metabolized in the body”. For the same compound, the Tolerability result in data set [1] was “well-tolerated”. Besides, in data set [2] (healthy subjects and patients suffering from anxiety), the “Effects noted in subjects (sedation, calming)” value was “sedative and calming effects”. Besides, the Effect on sleep result in data set [2] (human, in vivo) is “enhance sleep”.
